Source: PubChem BioAssay AID256 (DTP/NCI, 2004)
“And” between values parts separate entries of the source, which are not always exact repeats. Identical values can stand only once. Inconclusive results and toxic doses are left out. Rule for the calls: active = survival T/C of 150% or more; inactive = T/C below 125% in these data.

Tested on: CD2F1 mice, L1210 leukemia ip, survival T/C
Assay: NCI In Vivo Anticancer Drug Screen. Data for tumor model L1210 Leukemia (intraperitoneal) in CD2F1 (CDF1) mice
Conditions: higher = longer survival
Procedure, shortened: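 Read-out first: treated-group measurement over vehicle-control measurement, expressed as a ratio. Animals bore a transplanted tumor line and were dosed with compound or vehicle.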

[1] = endpoint: mean survival time, dose: 100.0 mg/kg/injection, schedule: Q04DX003 (ip), vehicle: saline with Tween-80
[2] = endpoint: mean survival time, dose: 200.0 mg/kg/injection, schedule: Q04DX003 (ip), vehicle: saline with Tween-80
[3] = endpoint: mean survival time, dose: 400.0 mg/kg/injection, schedule: Q04DX003 (ip), vehicle: saline with Tween-80

Measured: T/C

Nc1c(-c2ncc[nH]2)ncn1CC(O)C(O)C(O)CO (stereo unspecified)
inactive: endpoint: mean survival time, dose: 12.5 mg/kg/injection, schedule: Q01DX005 (ip), vehicle: saline with Tween-80 98 % of control | endpoint: mean survival time, dose: 25.0 mg/kg/injection, schedule: Q01DX005 (ip), vehicle: saline with Tween-80 101 % of control | endpoint: mean survival time, dose: 50.0 mg/kg/injection, schedule: Q01DX005 (ip), vehicle: saline with Tween-80 103 % of control | endpoint: mean survival time, dose: 100.0 mg/kg/injection, schedule: Q01DX005 (ip), vehicle: saline with Tween-80 92 % of control | endpoint: mean survival time, dose: 200.0 mg/kg/injection, schedule: Q01DX005 (ip), vehicle: saline with Tween-80 98 % of control

OCC(O)C1OC(c2ccccc2)OC(CO)C1O (stereo unspecified)
inactive: endpoint: mean survival time, dose: 100.0 mg/kg/injection, schedule: Q04DX003 (ip), vehicle: saline + alcohol 106 % of control | endpoint: mean survival time, dose: 200.0 mg/kg/injection, schedule: Q04DX003 (ip), vehicle: saline + alcohol 100 % of control | endpoint: mean survival time, dose: 400.0 mg/kg/injection, schedule: Q04DX003 (ip), vehicle: saline + alcohol 95 % of control

CCCCCCCCCCCCCCCCN(C)S(=O)(=O)c1cccc(S(=O)(=O)F)c1
inactive: [1] 95 % of control | [2] 101 % of control | [3] 102 % of control

CN(C)C(=O)NCCN(CCNC(=O)N(C)C)C(=O)N(C)C
inactive: [1] 98 % of control | [2] 96 % of control | [3] 94 % of control

CC(=O)/C(=C\c1ccc(Cl)c(Cl)c1)C(=O)CCN(C)C
inactive: endpoint: median survival time, dose: 12.5 mg/kg/injection, schedule: Q01DX009 (ip), vehicle: saline 113 % of control and 98 % of control | endpoint: median survival time, dose: 25.0 mg/kg/injection, schedule: Q01DX009 (ip), vehicle: saline 95 % of control and 104 % of control and 109 % of control | endpoint: median survival time, dose: 50.0 mg/kg/injection, schedule: Q01DX009 (ip), vehicle: saline 113 % of control and 115 % of control and 110 % of control | endpoint: median survival time, dose: 100.0 mg/kg/injection, schedule: Q01DX009 (ip), vehicle: saline 97 % of control and 105 % of control

O=C(Nc1ccc(Cl)cc1[N+](=O)[O-])c1ccc2ccccc2c1O
inactive: endpoint: mean survival time, dose: 100.0 mg/kg/injection, schedule: Q01DX001 (ip), vehicle: Klucel (hydroxypropylcellulose) (HPC) 100 % of control | endpoint: mean survival time, dose: 200.0 mg/kg/injection, schedule: Q01DX001 (ip), vehicle: Klucel (hydroxypropylcellulose) (HPC) 105 % of control | endpoint: mean survival time, dose: 400.0 mg/kg/injection, schedule: Q01DX001 (ip), vehicle: Klucel (hydroxypropylcellulose) (HPC) 100 % of control
